Key:
[1] = target: T1, human CH24H (Homo sapiens, UniProt Q9Y6A2); test: Measurement of CH24H inhibitory activity (24-HC produced from [14C] cholesterol by human CH24H lysate); format: biochemical; conditions: test compound 1 μM, [14C] cholesterol 15 μM, 37° C., 5 hr, read-out: Inhibitory Rate (%) in 1 μM
T1 construct: Using Full-Length Mammalian Gene Collection No. 4819975 (Invitrogen) as a template; made in house; host or cells: FreeStyle 293-F cells (transient transfection); cell lysate supernatant, not purified
T1 sequence (Q9Y6A2 whole entry): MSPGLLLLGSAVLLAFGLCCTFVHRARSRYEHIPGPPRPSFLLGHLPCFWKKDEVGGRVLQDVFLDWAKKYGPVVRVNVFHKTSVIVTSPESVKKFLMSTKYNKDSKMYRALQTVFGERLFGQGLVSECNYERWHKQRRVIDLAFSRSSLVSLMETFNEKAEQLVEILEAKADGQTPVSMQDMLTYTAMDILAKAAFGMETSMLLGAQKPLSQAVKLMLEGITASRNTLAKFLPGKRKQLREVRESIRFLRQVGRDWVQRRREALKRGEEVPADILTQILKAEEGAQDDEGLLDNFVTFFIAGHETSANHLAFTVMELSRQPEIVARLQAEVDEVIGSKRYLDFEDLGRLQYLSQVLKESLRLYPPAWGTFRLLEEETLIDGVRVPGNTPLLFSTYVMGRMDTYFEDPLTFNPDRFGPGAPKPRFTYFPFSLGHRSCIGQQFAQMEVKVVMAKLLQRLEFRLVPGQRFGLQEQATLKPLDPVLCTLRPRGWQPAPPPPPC
Experimental: The expression of human CH24H was performed using FreeStyle 293 Expression System (Invitrogen). According to the manual attached to FreeStyle 293 Expression System and using the plasmid DNA for human CH24H expression (pcDNA3.1(+)/hCH24H) constructed in Experimental Example 1, a transient expression using FreeStyle 293-F cell was performed. After transfection, the cells were cultured at 37° C., 8% CO2 with shaking at 125 rpm for 2 days. The cells were collected by centrifugation, and suspended in a suspension buffer (100 mM potassium phosphate (pH 7.4), 0.1 mM EDTA, 1 mM DTT, 20% Glycerol). The suspended product was disrupted by a polytron homogenizer (manufactured by Kinematica), and centrifuged at 9000×g for 10 min, and the supernatant was collected. The collected supernatant was cryopreserved (−80° C.) as a human CH24H lysate standard product.
For the measurement of CH24H inhibitory activity, using the human CH24H lysate prepared in Experimental Example 2, the amount of 24-HC produced from cholesterol by catalytic activity of CH24H was measured in the presence of a test compound, and compared with that measured in the absence of the test compound. That is, a test compound solution at various concentrations was mixed with a reaction buffer (50 mM potassium phosphate containing 0.1% BSA and Complete, EDTA-free, pH 7.4) and human CH24H lysate. Then, [^14C] cholesterol (53 mCi/mmol specific activity, 15 μM) was added, and CH24H reaction was performed at 37° C. for 5 hr. After completion of the reaction, a quenching solution consisting of chloroform/methanol/distilled water (2:2:1 v/v) was added, and the resulting 24-HC was extracted by shaking. The extract was applied to silica gel thin layer chromatography (ethyl acetate:toluene=4:6), and the obtained ^14C-24HC fraction was measured with BAS2500 (Fujifilm Corporation).
The inhibitory rate (%) was calculated from the ratio of radioactivity in the presence of a test compound relative to the radioactivity in the absence of the test compound.

[2] = test system: APP transgenic mouse (Tg2576); test: Novel object recognition test using an APP transgenic mouse (Tg2576); format: in vivo, Tg2576 mice; conditions: 3 mg/mL suspension at 10 mL/kg orally once a day for 6 weeks
Experimental: Animals used were 6-week-old Tg2576 mice and their wild-type mice (10 mice/group). A test compound was suspended in a 0.5% aqueous methyl cellulose [133-14255 WAKO] solution (3 mg/mL). The body weight of the mice was measured, and the solution was forcibly administered orally and repeatedly at 10 mL/kg once a day for 6 weeks. Then, a novel object recognition test was performed as follows. On the day before acquisition trial, the mice kept in the same cage were put in an observation box in which the illuminance was set to 300 lx, and habituated for 30 min. After the habituation, a compound was orally administered. On the next day, the mice were put, as an acquisition trial, in an observation box in which two same objects were placed, and the number and duration of contacts to the objects were measured for 5 min under 300 lx. A compound was orally administered after the measurement. The day after the acquisition trial, the one object was replaced with a novel object, and the number and duration of contacts to each of the object were measured for 5 min. A metal cylinder and ceramic triangular pyramid were used in this test. A control group (test compound-untreated group) and a control group in wild-type mice were used for comparison. […]

| SMILES | inhibition at 1 µM [1] [%] | exploration Rate (%) of Novel Object, duration of contacts [2] [%] | exploration Rate (%) of Novel Object, number of contacts [2] [%] |
| --- | --- | --- | --- |
| O=C(c1cnc2c(-c3cnco3)cc(C(F)(F)F)cn12)N1C2CCC1COC2 [Example 85, 3-oxa-8-azabicyclo[3.2.1]oct-8-yl(8-(1,3-oxazol-5-yl)-6-(trifluoromethyl)imidazo[1,2-a]pyridin-3-yl)methanone] | 88 | 61.8 | 54.4 |
| O=C(c1cnc2c(-c3cnco3)cc(C(F)(F)F)cn12)N1C2COCC1COC2 [Example 176, 3,7-dioxa-9-azabicyclo[3.3.1]non-9-yl(8-(1,3-oxazol-5-yl)-6-(trifluoromethyl)imidazo[1,2-a]pyridin-3-yl)methanone] | 94 | – | – |
| O=C(c1cnc2c(-c3cnco3)cc(C(F)(F)F)cn12)N1CC(F)C1 [Example 177, (3-fluoroazetidin-1-yl)(8-(1,3-oxazol-5-yl)-6-(trifluoromethyl)imidazo[1,2-a]pyridin-3-yl)methanone] | 86 | – | – |

From US9296746B2, “Heterocyclic compound” (TAKEDA PHARMACEUTICAL COMPANY LIMITED, priority 2012, dated 2016)
